8 compounds from patent publication US12589156B2, “Benzimidazole and benzimidazolone based protac compounds for the targeted degradation of leucine rich repeat kinase 2 (LRRK2)” (Arvinas Operations, Inc., priority 2023, dated 2026) can be followed below.

Each structure is given as a SMILES string.

This test deals with T1, WT LRRK2 (Homo sapiens, UniProt Q5S007).
T1 construct: endogenous in cells; host or cells: HEK293 (endogenous LRRK2 gene knock-in tagged with HiBit; stably expressing CMV-driven firefly luciferase)
T1 sequence (Q5S007 whole entry): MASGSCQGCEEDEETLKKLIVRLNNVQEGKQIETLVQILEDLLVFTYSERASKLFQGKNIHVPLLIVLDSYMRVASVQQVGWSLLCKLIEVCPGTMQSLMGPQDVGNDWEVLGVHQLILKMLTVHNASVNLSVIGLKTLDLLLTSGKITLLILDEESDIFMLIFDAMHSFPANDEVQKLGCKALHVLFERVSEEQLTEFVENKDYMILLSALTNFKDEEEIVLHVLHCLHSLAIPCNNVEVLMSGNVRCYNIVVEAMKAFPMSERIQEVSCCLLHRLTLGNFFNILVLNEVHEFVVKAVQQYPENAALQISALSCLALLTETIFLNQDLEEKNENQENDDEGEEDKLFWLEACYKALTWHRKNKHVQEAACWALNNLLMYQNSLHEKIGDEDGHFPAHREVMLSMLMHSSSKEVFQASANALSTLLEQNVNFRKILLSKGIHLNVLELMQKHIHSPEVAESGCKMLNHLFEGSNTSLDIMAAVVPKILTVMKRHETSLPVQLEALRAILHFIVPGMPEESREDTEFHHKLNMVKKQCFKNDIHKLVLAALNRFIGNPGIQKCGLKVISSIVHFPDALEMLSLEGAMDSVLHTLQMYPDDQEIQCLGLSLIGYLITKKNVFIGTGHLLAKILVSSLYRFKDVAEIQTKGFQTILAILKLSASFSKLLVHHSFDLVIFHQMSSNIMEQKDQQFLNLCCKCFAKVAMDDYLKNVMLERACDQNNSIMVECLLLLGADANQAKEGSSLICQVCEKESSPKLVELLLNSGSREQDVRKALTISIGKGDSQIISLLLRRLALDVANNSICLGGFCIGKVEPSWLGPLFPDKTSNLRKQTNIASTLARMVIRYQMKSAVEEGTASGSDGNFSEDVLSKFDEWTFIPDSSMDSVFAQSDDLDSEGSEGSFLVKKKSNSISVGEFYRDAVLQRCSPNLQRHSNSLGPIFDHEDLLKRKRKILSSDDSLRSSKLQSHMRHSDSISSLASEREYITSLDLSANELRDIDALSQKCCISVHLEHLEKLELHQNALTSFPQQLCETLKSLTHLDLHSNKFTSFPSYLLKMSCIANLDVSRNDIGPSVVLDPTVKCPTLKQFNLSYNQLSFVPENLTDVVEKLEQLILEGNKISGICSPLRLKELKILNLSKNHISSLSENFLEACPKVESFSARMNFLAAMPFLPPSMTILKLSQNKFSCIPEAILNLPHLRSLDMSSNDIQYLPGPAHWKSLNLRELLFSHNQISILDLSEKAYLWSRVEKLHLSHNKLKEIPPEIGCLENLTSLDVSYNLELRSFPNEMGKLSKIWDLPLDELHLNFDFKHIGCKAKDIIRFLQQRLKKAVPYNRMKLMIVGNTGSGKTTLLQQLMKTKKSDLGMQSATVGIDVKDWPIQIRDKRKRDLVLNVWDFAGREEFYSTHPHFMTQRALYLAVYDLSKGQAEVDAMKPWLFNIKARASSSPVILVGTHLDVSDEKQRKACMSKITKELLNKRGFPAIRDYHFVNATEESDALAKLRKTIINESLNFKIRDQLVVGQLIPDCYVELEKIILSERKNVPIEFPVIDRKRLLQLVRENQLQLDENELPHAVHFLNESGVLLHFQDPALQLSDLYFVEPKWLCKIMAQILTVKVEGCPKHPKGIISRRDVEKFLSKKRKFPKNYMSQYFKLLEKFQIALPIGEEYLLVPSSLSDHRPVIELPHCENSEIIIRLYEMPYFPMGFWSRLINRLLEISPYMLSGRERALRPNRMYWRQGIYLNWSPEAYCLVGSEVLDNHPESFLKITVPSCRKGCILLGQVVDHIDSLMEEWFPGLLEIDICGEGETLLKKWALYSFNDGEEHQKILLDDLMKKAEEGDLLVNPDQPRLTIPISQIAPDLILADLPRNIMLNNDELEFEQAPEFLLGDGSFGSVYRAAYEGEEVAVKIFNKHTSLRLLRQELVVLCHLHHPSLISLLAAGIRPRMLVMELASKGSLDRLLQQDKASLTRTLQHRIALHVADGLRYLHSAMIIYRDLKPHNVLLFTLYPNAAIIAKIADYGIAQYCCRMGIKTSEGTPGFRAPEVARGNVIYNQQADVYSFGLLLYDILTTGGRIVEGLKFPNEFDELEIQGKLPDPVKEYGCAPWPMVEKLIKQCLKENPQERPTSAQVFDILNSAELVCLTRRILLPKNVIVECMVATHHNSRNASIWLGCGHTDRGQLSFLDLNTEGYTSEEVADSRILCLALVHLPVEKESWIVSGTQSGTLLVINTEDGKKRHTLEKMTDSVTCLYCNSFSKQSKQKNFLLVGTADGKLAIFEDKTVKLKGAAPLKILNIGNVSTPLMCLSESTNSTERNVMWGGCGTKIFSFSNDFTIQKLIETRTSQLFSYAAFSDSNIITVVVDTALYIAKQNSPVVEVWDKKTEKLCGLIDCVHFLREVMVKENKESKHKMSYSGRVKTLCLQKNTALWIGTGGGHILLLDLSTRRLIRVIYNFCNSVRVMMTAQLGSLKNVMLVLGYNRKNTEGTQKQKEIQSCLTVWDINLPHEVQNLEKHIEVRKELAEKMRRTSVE
Briefly: LRRK2 HiBit degradation assay (Nano-Glo Dual Luciferase) in HEK293 cells with HiBit-tagged endogenous LRRK2. It is filed as cell-based. An excerpt: Biological Assays Exemplary Assay for Testing LRRK2 Degradation Driven by Exemplary Hetero-Bifunctional Compounds Designed to Target LRRK2
The assay measures the degradation of LRRK2 in cells where the C-terminus (3′) of the endogenous gene has been tagged with a HiBit sequence in HEK293 cells. The cells also express firefly lucisferase, expressed from a Cytomegalovirus promoter and introduced into the HiBit tagged cells and stably expressed. The Nano-Glo® Dual Luciferase Reporter Assay System (Promega™, Madison, WI) was utilized.
Day 1—Preparation of Compound and Assay Plates. Two sets of plates were prepared: a triplicate set for the HiBit assay in white 384-well plates and a triplicate set of plate in black 384-well plates for the Alamar Blue cell viability assay. Briefly, the growth media (DMEM+Glutamax-10% fetal bovine serum-1% Penicillin-Streptomicin) from two T128 flasks was aspirated from the flasks. Cells were washed with Dulbecco's Phosphate Buffered Saline (dPBS) and aspirated. Trypsin (3 mL per flask) was added and the flasks were incubated for 2-3 minutes.
Ten mL of OptiMEM—10% fetal bovine-1% penicillin-streptomycin (hereinafter, “OptiMEM media”) was added to the flask and the cells and transferred to a 50 ml conical tube. A cell count (25 ul of cell into Effendorf vial+25 ul of Trypan Blue Stain) was performed and the cell density adjusted to 15,000 cell/45 μl/well (3.33×10^5/mL) in OptiMEM media.
Forty-five microliters of the cell suspension (15,000 cells) was aliquoted to each well of the white 384-well plate. The plates incubated at room temperature for 10 minutes before being placed in the 37° C.+5% CO2 incubator overnight
Day 2—Compound Treatment. Exemplary compounds were prepared at a 1 mM starting concentration and 1:3 serial dilution for 11 points CRC prepared and stored in the freezer. The Master Compound Plate was thawed overnight at room temperature. DMSO (20 μL) was added into column 24 of the Master Compound Plate for negative control and 20 μL of 300 μM of Compound 4 in column 23 as positive control.
Intermediate Compound Plate with 4% DMSO in OptiMEM Media. DMSO was added to warm OptiMEM media to achieve a 4% DMSO solution (approximately 50 mL/plate). One-hundred microliters of the OptiMEM-4% DMSO was aliquoted to each well of 384-Well Deep Well Microplates.
The Master Compound Plate and the Intermediate Compound Plate were spun down.
One microliter of compound from the Master Compound Plate was transferred into the Intermediate plate (a 1:100 dilution). The diluted mixture was mixed and 5 μL transferred into the assay plate (a 1:10 dilution) for the final starting concentration of 1 μM. The Treated Assay plates were incubated for 24 hours at 37° C.+5% CO2. The Master Compound Plate was sealed and store at room temperature for a second run that was performed within a week.
One set of white assay plates was warmed to room temperature (45 minute).
The One Glo luciferase mixture was prepared. The media from white 384-well assay plates was aspirated. Twenty-five μL of the One Glo luciferase mixture was added to each well of the assay plates. The plates were incubated on the bench (room temperature) for 45 minutes, including 10 minutes of shaking at 700 rpm. The luminescence of each plate was read on a plate reader.
1:100 DLR substrate and 1:100 LgBiT Protein dilution were added to the Promega Stop and Glo buffer and mixed just before addition to assay plates. Twenty-five microliters of Stop and Glo mixture was added to each well. Assay plates incubated for at least 45 minutes, including 10 minutes of shaking at 700 rpm. The luminescence of each plate was read on a plate reader.
Analysis of LRRK2 HiBit Screening assays. As mentioned above, plates were run in triplicate and the assay repeated twice (total of 6 replicate for exemplary compounds). For each treatment, measurements were taken for firefly luciferase for cell number, cell viability (Alamar Blue), and Nanoluc for the LRRK2-HiBit quantification. […]
Background: The HiBiT peptide binds its large partner to form an active luciferase.

The mark [1] stands for this setting: HEK293, Table 2, maximal degradation, HiBit-tagged LRRK2 in HEK293 cells, 24 hours treatment.
Setting [2] is: HEK293, Table 3, comparison with direct comparators, maximal degradation.
Setting [3] is: Table 2, HiBit-tagged LRRK2 in HEK293 cells, 24 hours treatment, starting concentration 1 μM.
[4] abbreviates: Table 3, comparison with direct comparators, HiBit-tagged LRRK2 in HEK293 cells, 24 hours treatment.

Usually Dmax stands for the largest share of the target that was removed. The term DC50 denotes the concentration giving 50% degradation. A low value points to a more potent degrader. For the compound `CC1(Oc2ccc3[nH]nc(-c4cc(N5CCN(C[C@H]6CC[C@H](OC7CCN(c8cc9ncn(C%10CCC(=O)NC%10=O)c9cc8F)CC7)CC6)CC5)ncn4)c3c2)CC1` (stereo partly drawn) [Compound 44, rel-3-[6-fluoro-5-(4-{[(1r,4r)-4-[(4-{6-[5-(1-methylcyclopropoxy)-1H-indazol-3-yl]pyrimidin-4-yl}piperazin-1-yl)methyl]cyclohexyl]oxy}piperidin-1-yl)-1H-1,3-benzodiazol-1-yl]piperidine-2,6-dione], the Dmax is 50% under setting [1] and 50% under setting [2]. The DC50 came to 6.3 nM under setting [3] and 6.3 nM under setting [4].
In the case of `Cn1c(=O)n(C2CCC(=O)NC2=O)c2cccc(N3CCC(CN4CCN(CC5CCN(c6cc(-c7n[nH]c8ccc(OC9(C)CC9)cc78)ncn6)CC5)CC4)CC3)c21` (stereo not shown) [Compound 15, 3-{3-methyl-4-[4-({4-[(1-{6-[5-(1-methylcyclopropoxy)-1H-indazol-3-yl]pyrimidin-4-yl}piperidin-4-yl)methyl]piperazin-1-yl}methyl)piperidin-1-yl]-2-oxo-2,3-dihydro-1H-1,3-benzodiazol-1-yl}piperidine-2,6-dione], the Dmax runs as follows: under setting [1], 59%; under setting [2], 59%. The DC50 worked out at 1.5 nM under setting [3] and 1.5 nM under setting [4].
For `COc1c(N2CCC(CN3CCN(CC4CCN(c5cc(-c6n[nH]c7cnc(OC8(C)CC8)cc67)ncn5)CC4)C(C)(C)C3)CC2)ccc2c1CN(C1CCC(=O)NC1=O)C2=O` (stereo not shown) [Comparative Example 6, reference compound], the Dmax under setting [2] amounted to 68%. In addition, it took 1.7 nM to reach half-maximal degradation under setting [4] (DC50).
For `COc1c(N2CCC(O[C@H]3CC[C@H](CN4CCN(c5cc(-c6[nH]nc7ccc(OC8(C)CC8)cc67)ncn5)CC4)CC3)CC2)ccc2c1CN(C1CCC(=O)NC1=O)C2=O` (stereo partly shown) [Comparative Example 2, reference compound], in that order: 62% and 3 nM.
`Cn1c(=O)n(C2CCC(=O)NC2=O)c2ccc(N3CCC(OC4CCC(OC5CCN(c6cc(-c7n[nH]c8cnc(OC9(C)CC9)cc78)ncn6)CC5)CC4)CC3)cc21` (stereo not drawn) [Compound 25, rel-3-[3-methyl-2-oxo-5-(4-{[(1r,4r)-4-[(1-{6-[5-(1-methylcyclopropoxy)-1H-pyrazolo[3,4-c]pyridin-3-yl]pyrimidin-4-yl}piperidin-4-yl)oxy]cyclohexyl]oxy}piperidin-1-yl)-2,3-dihydro-1H-1,3-benzodiazol-1-yl]piperidine-2,6-dione] came in with a DC50 under setting [3] of 0.32 nM. Further, where the note is “Table 2, maximal degradation, HiBit-tagged LRRK2 in HEK293 cells, 24 hours treatment”, the “WT LRRK2 **Dmax (%)” value was found to be 48%.
As to `CC(C)Oc1ccc2[nH]nc(-c3cc(N4CCC(O[C@H]5CC[C@H](OC6CCN(c7ccc8c(c7)n(C)c(=O)n8C7CCC(=O)NC7=O)CC6)CC5)CC4)ncn3)c2c1` (single isomer, unassigned) [Compound 27, rel-3-[3-methyl-2-oxo-5-(4-{[(1r,4r)-4-[(1-{6-[5-(propan-2-yloxy)-1H-indazol-3-yl]pyrimidin-4-yl}piperidin-4-yl)oxy]cyclohexyl]oxy}piperidin-1-yl)-2,3-dihydro-1H-1,3-benzodiazol-1-yl]piperidine-2,6-dione], the Dmax under setting [1] is 57%. This compound yielded a DC50 under setting [3] of 0.25 nM.
Regarding `Cn1c(=O)n(C2CCC(=O)NC2=O)c2ccc(N3CCC(CN4CCN(CC5CCN(c6cc(-c7n[nH]c8ccc(OC9(C)CC9)cc78)ncn6)CC5)CC4)CC3)cc21` (stereo not shown) [Compound 12, 3-{3-methyl-5-[4-({4-[(1-{6-[5-(1-methylcyclopropoxy)-1H-indazol-3-yl]pyrimidin-4-yl}piperidin-4-yl)methyl]piperazin-1-yl}methyl)piperidin-1-yl]-2-oxo-2,3-dihydro-1H-1,3-benzodiazol-1-yl}piperidine-2,6-dione], the Dmax was 64% under setting [1] and 64% under setting [2]. The compound further gave a DC50 under setting [3] of 0.17 nM and a DC50 under setting [4] of 0.17 nM.
For the compound `COc1c(N2CCC(CN3CCN(CC4CCN(c5cc(-c6n[nH]c7ccc(OC8(C)CC8)cc67)ncn5)CC4)C(C)(C)C3)CC2)ccc2c1CN(C1CCC(=O)NC1=O)C2=O` (stereo not shown) [Comparative Example 5, reference compound], the Dmax under setting [2] worked out at 65%. The compound also had a DC50 under setting [4] of 1.6 nM.
